Experimental data reported in US12053470B2, “Pharmaceutical combination comprising an ALK inhibitor and a SHP2 inhibitor” (Novartis AG, priority 2017, dated 2024).

Assays:
[1] = system: MGH049, MGH045-2A and MGH073-2B cells; assay: Cell colony formation assay (crystal violet, FIG. 1); format: cell-based, human; settings: Compound No. 1 5 μM, 14 days
Source text: FIG. 1. […]. For each cell line, all dishes were fixed, stained and photographed at the same time.
The MGH049, MGH045-2A and MGH073-2B cell lines were established at Massachusetts General Hospital. MGH049 is described in Friboulet L, et al. Cancer Discov. 2014 June; 4(6):662-73. MGH045 is described in Friboulet L, et al. Cancer Discov. 2014 June; 4(6):662-73). MGH045-1A, is described in Science, 2014, December 19; 346(6216):1480-1).
All human lung cancer samples were obtained from patients with informed consent, and all procedures were carried out under an Institutional Review Board (IRB)-approved protocol. The cell lines were cultured in DMEM (ATCC) supplemented with 10% FBS, or in RPMI (ATCC) supplemented with 15% FBS.
Cell colony formation assays were used to assess cell viability and proliferation after compound treatments. Cells were plated into 6-well tissue culture plates (6×10^5 cells/well) in a total volume of 2 mL. After 24 hours, compounds were added to the plates. At the end points of the assays, cells were fixed, stained with crystal violet and photographed.
[…]. […] […].

[2] = system: Ceritinib resistant MGH049 cells; assay: Cell colony formation assay with ceritinib resistant MGH049 cells;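 on all read-outs here: tested compounds are SHP2 inhibitors given alone, colonies fixed and crystal violet stained, DMSO reference taken as the mean of six readings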; format: cell-based, human; settings: 7 days; for activity at 3 µM: Homo sapiens, 168 h, compound of Table 1 (3 μM) alone, normalized to DMSO without compound = 100, read-out: Normalized Crystal Violet abs. (590 nm) DMSO
SHP2 = SHP2 (Homo sapiens (Human), UniProt Q06124); assay: SHP2 allosteric inhibition assay (DiFMUP prompt fluorescence); format: biochemical
Sequence of SHP2 (Q06124 whole entry): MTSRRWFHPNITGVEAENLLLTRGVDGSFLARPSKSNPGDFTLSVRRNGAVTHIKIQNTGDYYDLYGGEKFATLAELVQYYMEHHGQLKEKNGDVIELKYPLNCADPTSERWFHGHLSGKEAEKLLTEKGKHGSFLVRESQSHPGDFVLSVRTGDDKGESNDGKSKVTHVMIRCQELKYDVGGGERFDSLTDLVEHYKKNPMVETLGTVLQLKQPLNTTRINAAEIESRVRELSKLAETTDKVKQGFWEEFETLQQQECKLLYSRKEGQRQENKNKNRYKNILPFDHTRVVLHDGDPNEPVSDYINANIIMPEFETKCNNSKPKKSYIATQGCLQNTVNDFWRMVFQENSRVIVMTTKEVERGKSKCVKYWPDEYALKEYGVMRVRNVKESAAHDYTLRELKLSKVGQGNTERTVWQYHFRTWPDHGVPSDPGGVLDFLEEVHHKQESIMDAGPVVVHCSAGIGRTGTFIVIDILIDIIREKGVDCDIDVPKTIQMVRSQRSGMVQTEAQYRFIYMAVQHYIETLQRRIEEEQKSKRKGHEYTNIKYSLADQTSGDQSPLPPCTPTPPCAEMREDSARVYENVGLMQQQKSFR

Compound	effect on cell growth as a single agent [1]	effect on cell growth as a single agent ([2]; 3 μM, ceritinib-resistant cells)	activity at 3 µM [2] [%]	IC50 (SHP2) [nM]
CC1(N)CCN(c2cnc(-c3cccc(Cl)c3Cl)c(N)n2)CC1 [Compound No. 1, 6-(4-amino-4-methylpiperidin-1-yl)-3-(2,3-dichlorophenyl)pyrazin-2-amine]	no effect on cell growth	no effect on cell growth	117	–
C[C@@H]1OCC2(CCN(c3cnc(-c4cccc(Cl)c4Cl)c(N)n3)CC2)[C@@H]1N [compound 7, (3S,4S)-8-(6-amino-5-(2,3-dichlorophenyl)pyrazin-2-yl)-3-methyl-2-oxa-8-azaspiro[4.5]decan-4-amine]	–	–	98.2	39
Nc1nc(N2CCC3(CCCN3)CC2)cnc1-c1cccc(Cl)c1Cl [compound 8, 3-(2,3-dichlorophenyl)-6-(1,8-diazaspiro[4.5]decan-8-yl)pyrazin-2-amine]	–	–	99.9	155
Nc1nc(N2CCC3(CCC[C@H]3N)CC2)cnc1-c1cccc(Cl)c1Cl [compound 9, (R)-8-(6-amino-5-(2,3-dichlorophenyl)pyrazin-2-yl)-8-azaspiro[4.5]decan-1-amine]	–	–	118	73
Nc1nc(N2CCC3(CC2)COC[C@H]3N)cnc1Sc1cccnc1C(F)(F)F [compound 10, (S)-8-(6-amino-5-((2-(trifluoromethyl)pyridin-3-yl)thio)pyrazin-2-yl)-2-oxa-8-azaspiro[4.5]decan-4-amine]	–	–	–	25
CC1CCC2(CCN(c3cnc(Sc4ccnc(N)c4Cl)c(N)n3)CC2)[C@@H]1N (stereo partly drawn) [compound 15, (1R)-8-(6-amino-5-((2-amino-3-chloropyridin-4-yl)thio)pyrazin-2-yl)-2-methyl-8-azaspiro[4.5]decan-1-amine]	–	–	31	9
CC[C@@H]1OCC2(CCN(c3cnc(Sc4ccnc(N)c4Cl)c(N)n3)CC2)[C@@H]1N [compound 17, (3S,4S)-8-(6-amino-5-((2-amino-3-chloropyridin-4-yl)thio)pyrazin-2-yl)-3-ethyl-2-oxa-8-azaspiro[4.5]decan-4-amine]	–	–	29.4	9
Nc1nccc(Sc2cnc(N3CCC4(CC3)C[C@@H](O)C[C@H]4N)cn2)c1Cl [compound 18, (2R,4R)-4-amino-8-(5-((2-amino-3-chloropyridin-4-yl)thio)pyrazin-2-yl)-8-azaspiro[4.5]decan-2-ol]	–	–	32.3	4.5
C[C@H]1C[C@@H](N)C2(CCN(c3cnc(Sc4ccnc(N)c4Cl)cn3)CC2)C1 [compound 19, (1R,3R)-8-(5-((2-amino-3-chloropyridin-4-yl)thio)pyrazin-2-yl)-3-methyl-8-azaspiro[4.5]decan-1-amine]	–	–	96.1	6
CC1CCC2(CCN(c3cnc(Sc4ccnc(N)c4Cl)cn3)CC2)[C@@H]1N (stereo partly drawn) [compound 20, (1R)-8-(5-((2-amino-3-chloropyridin-4-yl)thio)pyrazin-2-yl)-2-methyl-8-azaspiro[4.5]decan-1-amine]	–	–	54.7	6
C[C@@H]1OCC2(CCN(c3cnc(Sc4cc(N)nc(Cl)c4Cl)cn3)CC2)[C@@H]1N [compound 21, (3S,4S)-8-(5-((6-amino-2,3-dichloropyridin-4-yl)thio)pyrazin-2-yl)-3-methyl-2-oxa-8-azaspiro[4.5]decan-4-amine]	–	–	48.2	14
C[C@@H]1OCC2(CCN(c3cnc(Sc4ccnc(N)c4Cl)cn3)CC2)[C@@H]1N [compound 22, (3S,4S)-8-(5-((2-amino-3-chloropyridin-4-yl)thio)pyrazin-2-yl)-3-methyl-2-oxa-8-azaspiro[4.5]decan-4-amine]	–	–	19.5	8
Nc1nccc(Sc2cnc(N3CCC4(CC3)COC[C@H]4N)cn2)c1Cl [compound 24, (S)-8-(5-((2-amino-3-chloropyridin-4-yl)thio)pyrazin-2-yl)-2-oxa-8-azaspiro[4.5]decan-4-amine]	–	–	43.5	6
Cn1c(N2CCC3(CCC[C@H]3N)CC2)nc2n[nH]c(-c3cccc(Cl)c3Cl)c2c1=O [compound 37, (R)-6-(1-amino-8-azaspiro[4.5]decan-8-yl)-3-(2,3-dichlorophenyl)-5-methyl-2,5-dihydro-4H-pyrazolo[3,4-d]pyrimidin-4-one]	–	–	45	26
CC1(N)CCN(c2cnc(Sc3cccc(NC(=O)C4=C(O)CN(c5ccccc5)C4=O)c3Cl)c(N)n2)CC1 [compound 46, N-(3-((3-amino-5-(4-amino-4-methylpiperidin-1-yl)pyrazin-2-yl)thio)-2-chlorophenyl)-4-hydroxy-2-oxo-1-phenyl-2,5-dihydro-1H-pyrrole-3-carboxamide]	–	–	70.9	4
Nc1nc(N2CCC(N)(CF)CC2)cnc1Sc1cccc(NC(=O)c2c(O)nc3n(c2=O)CCCC3)c1Cl [compound 51, N-(3-((3-amino-5-(4-amino-4-(fluoromethyl)piperidin-1-yl)pyrazin-2-yl)thio)-2-chlorophenyl)-2-hydroxy-4-oxo-6,7,8,9-tetrahydro-4H-pyrido[1,2-a]pyrimidine-3-carboxamide]	–	–	94	6
Nc1nc(N2CCC(N)(CF)CC2)cnc1Sc1cccc(NC(=O)c2c(O)nc3ccccn3c2=O)c1Cl [compound 52, N-(3-((3-amino-5-(4-amino-4-(fluoromethyl)piperidin-1-yl)pyrazin-2-yl)thio)-2-chlorophenyl)-2-hydroxy-4-oxo-4H-pyrido[1,2-a]pyrimidine-3-carboxamide]	–	–	67.9	5
Nc1nc(N2CCC3(CC2)COC[C@H]3N)cnc1Sc1cccc(NC(=O)c2c(O)nc3n(c2=O)CCCC3)c1Cl [compound 53, (S)-N-(3-((3-amino-5-(4-amino-2-oxa-8-azaspiro[4.5]decan-8-yl)pyrazin-2-yl)thio)-2-chlorophenyl)-2-hydroxy-4-oxo-6,7,8,9-tetrahydro-4H-pyrido[1,2-a]pyrimidine-3-carboxamide]	–	–	46.5	–
CN1C(=O)C(C(=O)Nc2cccc(Sc3ncc(N4CCC(C)(N)CC4)nc3N)c2Cl)=C(O)C1Cc1ccccc1 (stereo not drawn) [compound 54, N-(3-((3-amino-5-(4-amino-4-methylpiperidin-1-yl)pyrazin-2-yl)thio)-2-chlorophenyl)-5-benzyl-4-hydroxy-1-methyl-2-oxo-2,5-dihydro-1H-pyrrole-3-carboxamide]	–	–	132	–
